Assay results reported in patent US8993586B2, “N1/N2-lactam acetyl-CoA carboxylase inhibitors” (Pfizer Inc., priority 2010, dated 2015).

Tests used:
[1] = molecular target: recombinant human ACC1 (rhACC1) (Homo sapiens (Human), UniProt Q13085); assay: recombinant hACC1 Transcreener ADP detection FP assay; type: biochemical; conditions: 50 μM ATP, 120 min at 25° C.
Procedure: (§1) For example direct inhibition of ACC activity, for the compound of Formula (I) was determined using preparations of recombinant human ACC1 (rhACC1) and recombinant human ACC2 (rhACC2).
[1] Preparation of rhACC1. Two liters of SF9 cells, infected with recombinant baculovirus containing full length human ACC1 cDNA, were suspended in ice-cold lysis buffer (25 mM Tris, pH 7.5; 150 mM NaCl; 10% glycerol; 5 mM imidazole (EMD Bioscience; Gibbstown, N.J.); 2 mM TCEP (BioVectra; Charlottetown, Canada); Benzonase nuclease (10000 U/100 g cell paste; Novagen; Madison, Wis.); EDTA-free protease inhibitor cocktail (1 tab/50 mL; Roche Diagnostics; Mannheim, Germany). Cells were lysed by 3 cycles of freeze-thaw and centrifuged at 40,000×g for 40 minutes (4° C.). Supernatant was directly loaded onto a HisTrap FF crude column (GE Healthcare; Piscataway, N.J.) and eluted with an imidazole gradient up to 0.5 M over 20 column volumes (CV). ACC1-containing fractions were pooled and diluted 1:5 with 25 mM Tris, pH 7.5, 2 mM TCEP, 10% glycerol and direct loaded onto a CaptoQ (GE Healthcare) column and eluted with an NaCl gradient up to 1 M over 20 CV's. Phosphate groups were removed from purified ACC1 by incubation with lambda phosphatase (100 U/10 μM target protein; New England Biolabs; Beverly, Mass.) for 14 hours at 4° C.; okadaic acid was added (1 μM final concentration; Roche Diagnostics) to inhibit the phosphatase. Purified ACC1 was exchanged into 25 mM Tris, pH 7.5, 2 mM TCEP, 10% glycerol, 0.5 M NaCl by 6 hour dialysis at 4° C. Aliquots were prepared and frozen at −80° C.
[2] Measurement of rhACC1 inhibition. hACC1 was assayed in a Costar #3676 (Costar, Cambridge, Mass.) 384-well plate using the Transcreener ADP detection FP assay kit (Bellbrook Labs, Madison, Wis.) using the manufacturer's recommended conditions for a 50 μM ATP reaction. The final conditions for the assay were 50 mM HEPES, pH 7.2, 10 mM MgCl2, 7.5 mM tripotassium citrate, 2 mM DTT, 0.1 mg/mL BSA, 30 μM acetyl-CoA, 50 μM ATP, and 10 mM KHCO3 Typically, a 10 μl reaction was run for 120 min at 25° C., and 10 μl of Transcreener stop and detect buffer was added and the combination incubated at room temp for an additional 1 hour. The data was acquired on a Envision Fluorescence reader (PerkinElmer) using a 620 excitation Cy5 FP general dual mirror, 620 excitation Cy5 FP filter, 688 emission (S) and a 688 (P) emission filter.

[2] = molecular target: recombinant human ACC2 (rhACC2) (Homo sapiens (Human), UniProt O00763); assay: recombinant hACC2 Transcreener ADP detection FP assay; type: biochemical; conditions: 50 uM ATP, 50 min at 25° C.
Sequence of recombinant human ACC2 (rhACC2) (O00763 whole entry V2141I): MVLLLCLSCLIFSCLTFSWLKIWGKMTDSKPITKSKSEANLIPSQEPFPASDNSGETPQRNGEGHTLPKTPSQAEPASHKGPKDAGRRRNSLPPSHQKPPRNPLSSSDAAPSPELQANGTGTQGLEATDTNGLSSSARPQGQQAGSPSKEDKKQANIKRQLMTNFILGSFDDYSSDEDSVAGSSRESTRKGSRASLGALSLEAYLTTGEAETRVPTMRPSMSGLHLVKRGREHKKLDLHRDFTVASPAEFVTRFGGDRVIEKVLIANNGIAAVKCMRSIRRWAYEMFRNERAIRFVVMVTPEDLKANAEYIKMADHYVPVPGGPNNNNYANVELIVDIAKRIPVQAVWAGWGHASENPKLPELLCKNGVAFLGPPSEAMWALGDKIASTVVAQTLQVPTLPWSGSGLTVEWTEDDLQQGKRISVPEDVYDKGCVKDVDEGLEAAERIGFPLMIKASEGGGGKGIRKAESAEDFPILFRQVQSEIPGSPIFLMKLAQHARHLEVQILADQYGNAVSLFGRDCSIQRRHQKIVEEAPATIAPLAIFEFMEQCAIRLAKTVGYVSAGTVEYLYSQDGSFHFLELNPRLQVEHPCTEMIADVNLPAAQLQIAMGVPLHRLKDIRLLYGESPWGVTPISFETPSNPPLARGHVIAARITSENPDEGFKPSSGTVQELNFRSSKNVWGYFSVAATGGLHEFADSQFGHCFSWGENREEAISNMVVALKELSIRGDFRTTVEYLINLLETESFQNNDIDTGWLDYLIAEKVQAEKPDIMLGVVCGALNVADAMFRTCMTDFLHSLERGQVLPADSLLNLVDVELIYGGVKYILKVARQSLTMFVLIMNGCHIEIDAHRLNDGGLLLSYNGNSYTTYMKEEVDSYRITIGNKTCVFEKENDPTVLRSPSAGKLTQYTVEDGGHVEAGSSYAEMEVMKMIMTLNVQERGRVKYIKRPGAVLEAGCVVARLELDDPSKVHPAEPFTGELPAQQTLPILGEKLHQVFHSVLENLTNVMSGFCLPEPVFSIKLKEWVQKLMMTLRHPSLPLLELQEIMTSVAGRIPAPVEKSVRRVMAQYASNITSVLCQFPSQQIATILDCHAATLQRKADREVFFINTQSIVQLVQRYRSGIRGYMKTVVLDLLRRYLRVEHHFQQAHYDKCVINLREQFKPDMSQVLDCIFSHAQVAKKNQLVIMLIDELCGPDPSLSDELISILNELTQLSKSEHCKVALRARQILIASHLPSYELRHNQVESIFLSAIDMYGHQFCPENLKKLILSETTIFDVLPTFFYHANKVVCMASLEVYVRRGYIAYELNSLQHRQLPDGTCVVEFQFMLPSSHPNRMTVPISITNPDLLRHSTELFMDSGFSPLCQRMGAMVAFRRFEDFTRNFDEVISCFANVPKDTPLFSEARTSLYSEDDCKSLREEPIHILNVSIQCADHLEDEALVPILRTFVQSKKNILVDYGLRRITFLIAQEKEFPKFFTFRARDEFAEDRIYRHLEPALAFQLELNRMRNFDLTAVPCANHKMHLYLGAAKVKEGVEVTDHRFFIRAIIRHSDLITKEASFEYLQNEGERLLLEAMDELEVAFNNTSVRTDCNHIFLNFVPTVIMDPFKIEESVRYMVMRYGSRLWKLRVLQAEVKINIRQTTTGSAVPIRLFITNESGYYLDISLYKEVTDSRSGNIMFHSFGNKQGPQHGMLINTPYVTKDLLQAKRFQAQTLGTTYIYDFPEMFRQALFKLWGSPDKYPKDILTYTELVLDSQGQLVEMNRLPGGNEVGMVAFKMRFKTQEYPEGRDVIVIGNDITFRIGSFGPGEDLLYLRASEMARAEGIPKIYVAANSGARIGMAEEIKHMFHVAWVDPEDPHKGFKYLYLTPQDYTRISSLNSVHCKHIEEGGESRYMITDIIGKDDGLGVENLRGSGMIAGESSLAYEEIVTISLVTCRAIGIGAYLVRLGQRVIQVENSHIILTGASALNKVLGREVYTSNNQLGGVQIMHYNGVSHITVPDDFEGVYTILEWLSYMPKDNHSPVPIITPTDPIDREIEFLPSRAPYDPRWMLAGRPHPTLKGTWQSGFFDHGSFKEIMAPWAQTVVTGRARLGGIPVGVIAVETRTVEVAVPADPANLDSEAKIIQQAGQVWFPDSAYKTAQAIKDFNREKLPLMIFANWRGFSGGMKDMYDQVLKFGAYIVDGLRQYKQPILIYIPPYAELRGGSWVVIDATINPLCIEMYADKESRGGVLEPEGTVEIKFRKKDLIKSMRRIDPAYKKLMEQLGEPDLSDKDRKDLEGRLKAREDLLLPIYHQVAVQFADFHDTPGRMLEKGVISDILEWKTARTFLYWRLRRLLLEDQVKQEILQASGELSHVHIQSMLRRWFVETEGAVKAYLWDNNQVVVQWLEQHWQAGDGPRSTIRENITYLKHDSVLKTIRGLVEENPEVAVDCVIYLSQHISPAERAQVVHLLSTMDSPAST
Procedure: as §1
[3] Preparation of rhACC2. Human ACC2 inhibition was measured using purified recombinant human ACC2 (hrACC2). Briefly, a full length Cytomax clone of ACC2 was purchased from Cambridge Bioscience Limited and was sequenced and subcloned into PCDNA5 FRT TO-TOPO (Invitrogen, Carlsbad, Calif.). The ACC2 was expressed in CHO cells by tetracycline induction and harvested in 5 liters of DMEM/F12 with glutamine, biotin, hygromycin and blasticidin with 1 μg/mL tetracycline (Invitrogen, Carlsbad, Calif.). The conditioned medium containing ACC2 was then applied to a Softlink Soft Release Avidin column (Promega, Madison, Wis.) and eluted with 5 mM biotin. […] The purified ACC2 was dialyzed in 50 mM Tris, 200 mM NaCl, 4 mM DTT, 2 mM EDTA, and 5% glycerol. […] For measurement of ACC2 activity and assessment of ACC2 inhibition, test compounds were dissolved in DMSO and added to the rhACC2 enzyme as a 5× stock with a final DMSO concentration of 1%.
[4] Measurement of human ACC2 inhibition. hACC2 was assayed in a Costar #3676 (Costar, Cambridge, Mass.) 384-well plate using the Transcreener ADP detection FP assay kit (Bellbrook Labs, Madison, Wis.) using the manufacturer's recommended conditions for a 50 uM ATP reaction. The final conditions for the assay were 50 mM HEPES, pH 7.2, 5 mM MgCl2, 5 mM tripotassium citrate, 2 mM DTT, 0.1 mg/mL BSA, 30 μM acetyl-CoA, 50 μM ATP, and 8 mM KHCO3 Typically, a 10 μl reaction was run for 50 min at 25° C., and 10 μl of Transcreener stop and detect buffer was added and the combination incubated at room temp for an additional 1 hour. The data was acquired on an Envision Fluorescence reader (PerkinElmer) using a 620 excitation Cy5 FP general dual mirror, 620 excitation Cy5 FP filter, 688 emission (S) and a 688 (P) emission filter.

Compound | IC50 [1] [nM] | IC50 [2] [nM]
CC(C)n1ncc2c1C(=O)NC1(CCN(C(=O)c3cnc4cn[nH]c4c3)CC1)C2 [Example 19] | 1480 | 2010
Cc1n[nH]c2c(C)cc(C(=O)N3C4CCC3CC3(Cc5cn(C(C)(C)C)nc5C(=O)N3)C4)cc12 (stereo not drawn) [Example 114] | 4820 | 612
CC(C)n1ncc2c1C(=O)NC1(CCN(C(=O)c3cc4ncccc4[nH]3)CC1)C2 [Example 18] | 657 | 719
CC(C)n1ncc2c1C(=O)NC1(CCN(C(=O)c3ccc4[nH]c(N)nc4c3)CC1)C2 [Example 35] | 487 | 91
CNc1cc2ccc(C(=O)N3CCC4(CC3)Cc3cnn(C(C)C)c3C(=O)N4)cc2cn1 [Example 38] | 364 | 107
CCN(C)c1nccc2ccc(C(=O)N3CCC4(CC3)Cc3cn(C(C)(C)C)nc3C(=O)N4)cc12 [Example 117] | 332 | 54
COc1ccc2ncc(C(=O)N3CCC4(CC3)Cc3cnn(C(C)C)c3C(=O)N4)cc2c1 [Example 26] | 121 | 60
CC(C)n1ncc2c1C(=O)NC1(CCN(C(=O)c3ccc4[nH]nc(Cl)c4c3)CC1)C2 [Example 34] | 116 | 50
CC(C)(C)n1cc2c(n1)C(=O)NC1(CCN(C(=O)c3ccc4nc(N)ccc4c3)CC1)C2 [Example 58] | 149 | 12
COCCNc1nccc2ccc(C(=O)N3CCC4(CC3)Cc3cn(C(C)(C)C)nc3C(=O)N4)cc12 [Example 120] | 47 | 6.1
CC(C)n1ncc2c1C(=O)NC1(CCN(C(=O)c3cc(Cl)c4[nH]ncc4c3)CC1)C2 [Example 11] | 88 | 72
CC(C)n1ncc2c1C(=O)NC1(CCN(C(=O)c3cnc4[nH]cc(Cl)c4c3)CC1)C2 [Example 31] | 179 | 96
COc1cc(C(=O)N2CCC3(CC2)Cc2cnn(C(C)C)c2C(=O)N3)nc2c(OC)cccc12 [Example 17] | 72 | 31
CNc1nc2cc(C(=O)N3CCC4(CC3)Cc3cnn(C(C)C)c3C(=O)N4)ccc2[nH]1 [Example 33] | 523 | 108
COCCNc1ccc2ccc(C(=O)N3CCC4(CC3)Cc3cn(C(C)(C)C)nc3C(=O)N4)cc2n1 [Example 111] | 27 | 3.3
COc1ccc2ccc(C(=O)N3CCC4(CC3)Cc3cnn(C(C)C)c3C(=O)N4)cc2n1 [Example 28] | 158 | 56
CC(C)(C)n1cc2c(n1)C(=O)NC1(CCN(C(=O)c3ccc4ccnc(NC5COC5)c4c3)CC1)C2 [Example 122] | 494 | 77
Cc1cc(C(=O)N2CCC3(CC2)Cc2cnn(C(C)C)c2C(=O)N3)cc2c[nH]nc12 [Example 4] | 43 | 38
CC(C)(C)n1cc2c(n1)C(=O)NC1(CCN(C(=O)c3ccc4ccc(NCC(F)(F)F)nc4c3)CC1)C2 [Example 124] | 6.5 | 1.72
CCN(C)c1ccc2ccc(C(=O)N3CCC4(CC3)Cc3cn(C(C)(C)C)nc3C(=O)N4)cc2n1 [Example 108] | 15 | 2.4
Cc1cc(C(=O)N2CCC3(CC2)Cc2cn(C(C)C)nc2C(=O)N3)cc2cn[nH]c12 [Example 42] | 68 | 29
CC(C)(C)n1cc2c(n1)C(=O)NC1(CCN(C(=O)c3ccc4ccc(NC5CCC5)nc4c3)CC1)C2 [Example 109] | 3.4 | 1
CC(C)n1ncc2c1C(=O)NC1(CCN(C(=O)c3ccc4[nH]nc(C#N)c4c3)CC1)C2 [Example 25] | 259 | 137
CC(C)Nc1nccc2ccc(C(=O)N3CCC4(CC3)Cc3cn(C(C)(C)C)nc3C(=O)N4)cc12 [Example 116] | 20 | 4.7
CC(C)(C)n1cc2c(n1)C(=O)NC1(CCN(C(=O)c3ccc4ccnc(NC5CC5)c4c3)CC1)C2 [Example 115] | 29 | 2.9
CCc1n[nH]c2ccc(C(=O)N3CCC4(CC3)Cc3cnn(C(C)C)c3C(=O)N4)cc12 [Example 15] | 251 | 143
Cc1cc(C(=O)N2CCC3(CC2)Cc2cnn(C(C)(C)C)c2C(=O)N3)cc2cn[nH]c12 [Example 7] | 62 | 47
CC(C)(C)n1cc2c(n1)C(=O)NC1(CCN(C(=O)c3ccc4ccc(Cl)nc4c3)CC1)C2 [Example 104, 2′-tert-butyl-1-(2-chloroquinoline-7-carbonyl)-4′,6′-dihydrospiro[piperidine-4,5′-pyrazolo[3,4-c]pyridin]-7′(2′H)-one] | 89 | 16

Second part, the molecule after the results:

IC50 [1] [nM] | IC50 [2] [nM] | Compound
343 | 44 | CNc1n[nH]c2cc(C(=O)N3CCC4(CC3)Cc3cn(C(C)(C)C)nc3C(=O)N4)ccc12 [Example 89]
47 | 13 | CC(C)(C)n1cc2c(n1)C(=O)NC1(CCN(C(=O)c3ccc4c(C#N)n[nH]c4c3)CC1)C2 [Example 53]
17 | 2.4 | COc1cc(C(=O)N2CCC3(CC2)Cc2cn(C(C)(C)C)nc2C(=O)N3)cc2[nH]ncc12 [Example 66]
21 | 5.1 | CC(C)(C)n1cc2c(n1)C(=O)NC1(CCN(C(=O)c3ccc4[nH]nc(C(N)=O)c4c3)CC1)C2 [Example 54]
48 | 5.5 | CNc1cc2cc(C(=O)N3CCC4(CC3)Cc3cn(C(C)(C)C)nc3C(=O)N4)ccc2cn1 [Example 73]
240 | 51 | CNc1nccc2cc(C(=O)N3CCC4(CC3)Cc3cn(C(C)(C)C)nc3C(=O)N4)ccc12 [Example 91]
209 | 31 | COc1cc2ccc(C(=O)N3CCC4(CC3)Cc3cn(C(C)(C)C)nc3C(=O)N4)cc2cn1 [Example 90]
30 | 9.2 | COc1ccc2ncc(C(=O)N3CCC4(CC3)Cc3cn(C(C)(C)C)nc3C(=O)N4)cc2c1 [Example 48]
15 | 4.4 | COc1cc(C(=O)N2CCC3(CC2)Cc2cn(C(C)(C)C)nc2C(=O)N3)nc2c(OC)cccc12 [Example 51]
8.5 | 3.8 | COc1ccc2ccc(C(=O)N3CCC4(CC3)Cc3cn(C(C)(C)C)nc3C(=O)N4)cc2c1 [Example 49]
80 | 8.4 | CC(C)(C)n1cc2c(n1)C(=O)NC1(CCN(C(=O)c3ccc4[nH]c(N)nc4c3)CC1)C2 [Example 77]
79 | 11 | CNc1nc2cc(C(=O)N3CCC4(CC3)Cc3cn(C(C)(C)C)nc3C(=O)N4)ccc2[nH]1 [Example 75]
17 | 2.1 | COc1cc(C(=O)N2CCC3(CC2)Cc2cn(C(C)(C)C)nc2C(=O)N3)cc2c(C)n[nH]c12 [Example 87]
62 | 7.1 | CC(C)(C)n1cc2c(n1)C(=O)NC1(CCN(C(=O)c3cnc4[nH]cc(Cl)c4c3)CC1)C2 [Example 96]
